In data set [1] the target is Cdk4 (Homo sapiens, UniProt P11802). The data set can be described thus: Cdk kinase profiling assay (Ambit Biosciences). The format is binding. Here is the method: (§1) Since flavonoids have been reported to inhibit multiple Cdks, we investigated the inhibitory effect of flavonoid apigenin on various Cdks. Apigenin inhibited multiple Cdks, including Cdk2, 4, 5, 7, 8, 9 and 11 (Table 1). […] GST was expressed and purified by using pGEX-4T-1 in Escherichia coli BL21 and was used as the negative control. The reaction mixture was incubated at 30°C for 30 min before being electrophoresed by SDS-PAGE. The gel was stained by using SimplyBlue SafeStain (Invitrogen), desiccated by the Labconco gel dryer (Labconco, Kansas City, MO), and exposed overnight to the Storage Phosphor Screen (GE Healthcare). Phosphoimages were obtained by using the Storm scanner (GE Healthcare). In vitro Cdks kinase profiling assays were performed by Ambit Biosciences (San Diego, CA) as previously described.
Sequence of Cdk4 (P11802 whole entry): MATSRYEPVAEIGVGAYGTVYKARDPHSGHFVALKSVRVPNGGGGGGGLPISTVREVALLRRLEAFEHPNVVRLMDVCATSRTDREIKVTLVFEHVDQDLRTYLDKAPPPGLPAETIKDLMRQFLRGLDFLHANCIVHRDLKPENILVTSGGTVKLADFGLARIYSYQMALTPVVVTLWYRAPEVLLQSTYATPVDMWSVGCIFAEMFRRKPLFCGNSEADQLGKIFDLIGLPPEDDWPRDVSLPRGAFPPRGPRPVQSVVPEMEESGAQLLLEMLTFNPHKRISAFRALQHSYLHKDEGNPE

In data set [2] the target is Cdk8 (Homo sapiens, UniProt P49336). The data set can be described thus: Cdk kinase profiling assay (Ambit Biosciences). The format is binding. The protocol: as §1
Sequence of Cdk8 (P49336 whole entry): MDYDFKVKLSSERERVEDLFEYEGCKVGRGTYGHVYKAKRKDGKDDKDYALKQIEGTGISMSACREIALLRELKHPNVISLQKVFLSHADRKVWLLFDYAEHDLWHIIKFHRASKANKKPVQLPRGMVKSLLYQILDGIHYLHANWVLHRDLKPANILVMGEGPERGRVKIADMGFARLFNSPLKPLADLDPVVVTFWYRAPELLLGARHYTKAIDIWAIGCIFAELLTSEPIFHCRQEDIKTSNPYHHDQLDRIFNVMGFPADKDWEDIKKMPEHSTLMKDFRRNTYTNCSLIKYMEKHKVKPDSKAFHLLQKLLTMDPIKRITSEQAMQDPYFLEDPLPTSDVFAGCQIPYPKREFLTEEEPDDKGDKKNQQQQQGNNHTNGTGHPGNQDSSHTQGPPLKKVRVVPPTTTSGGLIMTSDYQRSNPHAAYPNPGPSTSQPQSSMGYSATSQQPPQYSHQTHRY
Data set [3] deals with Cdk5 (Homo sapiens, UniProt Q00535). Description: Cdk kinase profiling assay (Ambit Biosciences). The format is binding. Here is the method: as §1
Sequence of Cdk5 (Q00535 whole entry): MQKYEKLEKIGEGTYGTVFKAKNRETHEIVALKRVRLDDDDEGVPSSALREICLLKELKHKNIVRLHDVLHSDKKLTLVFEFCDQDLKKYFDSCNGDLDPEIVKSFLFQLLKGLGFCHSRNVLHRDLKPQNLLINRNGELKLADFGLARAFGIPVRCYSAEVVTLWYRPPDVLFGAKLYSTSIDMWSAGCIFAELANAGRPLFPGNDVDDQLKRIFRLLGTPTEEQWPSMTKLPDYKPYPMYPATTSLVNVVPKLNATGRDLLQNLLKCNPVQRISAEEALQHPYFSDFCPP
The target of data set [4] is Cdk2 (Homo sapiens, UniProt P24941). Description: Cdk kinase profiling assay (Ambit Biosciences). The class given is binding. Here is the method:
as §1

Data set [5] addresses Cdk7 (Homo sapiens, UniProt P50613). Description: Cdk kinase profiling assay (Ambit Biosciences). The format is binding. The protocol:
as §1

The target of data set [6] is Cdk3 (Homo sapiens, UniProt Q00526). The data set can be described thus: Cdk kinase profiling assay (Ambit Biosciences). The class given is binding. Here is the method:
as §1

Data set [7] addresses Cdk11 (Homo sapiens, UniProt Q9BWU1). Description: Cdk kinase profiling assay (Ambit Biosciences). The format is binding. Here is the method: as §1
The target of data set [8] is Cdk9 (Homo sapiens, UniProt P50750). Description: Cdk kinase profiling assay (Ambit Biosciences). The class given is binding. The protocol:
as §1

Data set [9] deals with PXR-mediated CYP3A4 promoter activity in HepG2 cells stably transfected with PXR and CYP3A4-luc. The data set can be described thus: PXR transactivation assay (CYP3A4-luc luciferase reporter). As to conditions: 24 h; for PXR activation as % of the activity from 2 μM of rifampicin: compound below 10 μM; for Activation of PXR-mediated CYP3A4 promoter (result in words): screen hit in HepG2 PXR/CYP3A4-luc cells. The protocol: HepG2 cells (2 × 10^4/well) stably transfected with PXR and CYP3A4-luc were seeded in 384-well plates and treated with indicated compounds for 24 h before the luciferase assay. […] Compounds were tested in quadruplicate. The bars denote the standard deviation.
Compounds were added to 384-well plates seeded with cells in a phenol red-free medium containing 5% charcoal/dextran-treated FBS and incubated for 24 h at 37°C before conducting the luciferase assay. The final concentration of DMSO in each well was maintained at 0.1%. DMSO and 2 μM of rifampicin were used as the negative and positive control, respectively. Luciferase activities were detected by using EnVision plate reader (PerkinElmer Life Sciences), as previously reported.
(In a reporter assay the amount or activity of a reporter protein is the signal.)

The test system of data set [10] is Cdk5-mediated inhibition of PXR-mediated CYP3A4 promoter activity in HepG2. Description: Cdk5-mediated inhibition of rifampicin-induced CYP3A4 promoter activity (transient co-transfection, Dual-glo luciferase). Particulars: p < 0.001. The format is cell-based, human.
Protocol: Next, we determined the functional correlation between the activities of Cdk5 and PXR. […] A total of 20 μg of combined plasmids was used to transfect 5 × 10^6 cells seeded in a T75 flask 16 h before transfection. Transfected cells were seeded into white 96-well plates (at 10,000 cells/well) 24 h later, and treated with DMSO or compounds as indicated for 24 h before Dual-glo luciferase assay. CYP3A4 promoter activity was normalized by using activity of the CMV-renilla, and expressed as fold induction over control (DMSO; without Cdk5 transfection). […] The significance of the difference between datasets was determined by using the Student's t test.
Data set [11] has as its target T1, GST-hPXR ligand-binding domain (Homo sapiens, UniProt O75469).
T1 sequence (O75469 146-433 limits assumed): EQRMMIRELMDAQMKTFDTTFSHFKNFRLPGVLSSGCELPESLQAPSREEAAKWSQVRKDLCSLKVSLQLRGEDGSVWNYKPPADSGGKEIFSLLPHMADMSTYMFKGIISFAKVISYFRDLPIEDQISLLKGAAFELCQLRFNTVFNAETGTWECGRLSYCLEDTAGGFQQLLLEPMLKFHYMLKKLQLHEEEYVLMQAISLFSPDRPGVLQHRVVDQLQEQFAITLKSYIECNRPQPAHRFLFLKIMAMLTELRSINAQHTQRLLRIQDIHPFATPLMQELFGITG
Protocol: The time-resolved fluorescence resonance transfer (TR-FRET) PXR competitive binding assay was performed as described previously [9]. Briefly, the assays were performed in a volume of 20 μl in 384-well solid black plates with 5 nM GST-hPXR ligand-binding domain, 40 nM fluorescent-labeled hPXR agonist (Fluomore PXR Green), 5 nM terbium-labeled anti-GST antibody, and test compound at different concentrations. […] Curves were generated by using GraphPad Prism 4.0 (GraphPad Software, La Jolla, CA).

Usually Kd stands for the equilibrium constant for the complex coming apart. Read a low Kd as higher affinity.

Sequence of Cdk11 (Q9BWU1 whole entry): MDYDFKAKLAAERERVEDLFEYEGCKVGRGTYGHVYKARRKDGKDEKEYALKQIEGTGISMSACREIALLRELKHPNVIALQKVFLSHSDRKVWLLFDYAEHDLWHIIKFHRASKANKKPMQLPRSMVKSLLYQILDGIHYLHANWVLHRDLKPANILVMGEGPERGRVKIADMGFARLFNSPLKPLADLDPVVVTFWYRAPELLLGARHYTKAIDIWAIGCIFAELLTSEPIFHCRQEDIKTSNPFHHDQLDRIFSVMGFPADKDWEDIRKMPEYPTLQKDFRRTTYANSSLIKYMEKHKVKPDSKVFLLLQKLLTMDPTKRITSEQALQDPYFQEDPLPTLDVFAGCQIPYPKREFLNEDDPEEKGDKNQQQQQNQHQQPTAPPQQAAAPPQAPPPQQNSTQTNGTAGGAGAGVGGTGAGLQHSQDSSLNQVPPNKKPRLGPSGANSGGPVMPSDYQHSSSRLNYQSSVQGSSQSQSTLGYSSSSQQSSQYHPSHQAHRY
Sequence of Cdk3 (Q00526 whole entry): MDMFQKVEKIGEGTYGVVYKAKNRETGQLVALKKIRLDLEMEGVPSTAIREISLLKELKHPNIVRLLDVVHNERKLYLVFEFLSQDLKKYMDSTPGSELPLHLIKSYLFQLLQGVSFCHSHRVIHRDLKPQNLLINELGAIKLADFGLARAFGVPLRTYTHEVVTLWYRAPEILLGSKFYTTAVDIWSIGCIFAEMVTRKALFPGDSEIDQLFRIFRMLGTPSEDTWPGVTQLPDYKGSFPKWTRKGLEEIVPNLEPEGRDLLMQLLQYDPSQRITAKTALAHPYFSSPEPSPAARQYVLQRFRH
Sequence of Cdk7 (P50613 whole entry): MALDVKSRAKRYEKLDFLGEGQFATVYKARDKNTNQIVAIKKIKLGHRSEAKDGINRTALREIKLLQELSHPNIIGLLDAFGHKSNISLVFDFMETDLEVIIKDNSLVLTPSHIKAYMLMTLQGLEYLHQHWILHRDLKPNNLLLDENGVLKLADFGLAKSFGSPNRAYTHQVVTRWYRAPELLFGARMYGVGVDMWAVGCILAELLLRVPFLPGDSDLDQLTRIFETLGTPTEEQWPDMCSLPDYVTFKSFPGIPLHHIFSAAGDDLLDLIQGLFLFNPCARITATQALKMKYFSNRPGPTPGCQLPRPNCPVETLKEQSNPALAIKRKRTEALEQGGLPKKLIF
Sequence of Cdk9 (P50750 whole entry): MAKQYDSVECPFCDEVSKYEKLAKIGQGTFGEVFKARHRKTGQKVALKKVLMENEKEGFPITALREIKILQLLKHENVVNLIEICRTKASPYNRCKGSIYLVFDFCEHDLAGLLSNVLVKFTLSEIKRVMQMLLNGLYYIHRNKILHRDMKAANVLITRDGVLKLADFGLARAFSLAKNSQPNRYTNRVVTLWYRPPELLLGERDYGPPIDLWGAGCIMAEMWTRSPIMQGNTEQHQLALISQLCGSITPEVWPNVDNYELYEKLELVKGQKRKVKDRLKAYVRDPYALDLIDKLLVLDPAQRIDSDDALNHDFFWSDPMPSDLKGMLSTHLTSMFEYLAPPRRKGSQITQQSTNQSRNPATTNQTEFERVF

As for `O=c1cc(-c2ccc(O)cc2)oc2cc(O)cc(O)c12` [apigenin], the Kd in data set [1] was 7 µM; in data set [2], 5.8 µM; in data set [3] it was 3.9 µM; in [4] it was 9.8 µM; in [5] it was 1700 nM; in data set [6] it was over 30 µM. Moreover, the results for the Kd in data set [7] and in [8] were 3 µM and 2000 nM, respectively. The “PXR activation as % of the activity from 2 μM of rifampicin” value in [9] is “more than 50%”. Besides, the “Activation of PXR-mediated CYP3A4 promoter (result in words)” value (shortened to “Activation … (result in words)”) in [9] is on record as “potent activators”.

As for `COc1ccc(-c2coc3cc(O)cc(O)c3c2=O)cc1` [biochanin A], the “Activation … (result in words)” value in [9] is listed as “potent activators”.

`CCCC[C@@H](C=O)NC(=O)[C@H](CC(C)C)NC(=O)OCc1ccccc1` [calpeptin, reference compound]: in [10], the “Effect on inhibitory effect of Cdk5 on CYP3A4 promoter activity (result in words)” value was “decreased the inhibitory effect of Cdk5”. In addition, in data set [9] (HepG2 PXR/CYP3A4-luc), the “Concentration as potent as 2 μM of rifampicin in inducing PXR activity” value stood at 4.4 µM.

With `O=c1cc(-c2ccccc2)oc2cc(O)cc(O)c12` [chrysin], in data set [11], the “Binding to PXR (result in words)” value is recorded as “did not bind”. For the same molecule, the “Activation … (result in words)” value in data set [9] is “potent activators”.

In the case of `O=c1c(-c2ccc(O)cc2)coc2cc(O)ccc12` [daidzein], the “Activation … (result in words)” value in data set [9] is reported as “potent activators”.

For the molecule `O=c1c(-c2ccc(O)cc2)coc2cc(O)cc(O)c12` [genistein], the “Activation … (result in words)” value in data set [9] is recorded as “potent activators”.

Turning to `O=c1cc(-c2ccc(O)c(O)c2)oc2cc(O)cc(O)c12` [luteolin], the “PXR activation, times more effective than 2 μM rifampicin” value in data set [9] (compound at 40 μM, versus 2 μM rifampicin) turned out to be 7 times. For the same molecule, in data set [9], the “PXR activation as % of the activity from 2 μM of rifampicin” value was “more than 50%” and the “Activation … (result in words)” value is on record as “potent activators”.

In the case of `COc1cc(O)c2c(=O)c(-c3ccc(O)cc3)coc2c1` [prunetin], the “Activation … (result in words)” value in [9] was “potent activators”.

Source of the values: publication PMC2901217, “Flavonoids activate pregnane × receptor-mediated CYP3A4 gene expression by inhibiting cyclin-dependent kinases in HepG2 liver carcinoma cells” (BMC Biochemistry, 2010).
